The values below come from the supplement of paper PMC6965134.

± gives the standard deviation of the averaged measurements.

A short description of this series: TIMS collisional cross section (CCS, N2) of the lipid ion; higher = larger ion cross section. To be noted: ionization mode: positive, one isomer drawn.

In the case of `CCCCC/C=C\C/C=C\CCCCCCCC(=O)OC[C@@H](COC(=O)CCCCCCC/C=C\CCCCCCCC)OC(=O)CCCCCCC/C=C\C/C=C\CCCCC` [TG 18:1_18:2_18:2] (ion (formula + adduct): [C57H100O6+NH4] 1+), the “TIMS collisional cross section” value came out at 322.5 ± 0.14 Å² (sample type: Liver) and 322.17 ± 0.57 Å² (sample type: plasma).
On to `CCCCC/C=C\C/C=C\CCCCCCCC(=O)OC[C@@H](O)COP(=O)(O)O[C@H]1C(O)C(O)C(O)[C@@H](O)C1O` (some centres not stated) [LPI 18:2_0:0] (ion (formula + adduct): [C27H49O12P+H] 1+), for which the “TIMS collisional cross section” value (sample type: plasma) is recorded as 243 Å².
Take `CCCCC/C=C\CCCCCCCC(=O)O[C@H](COC(=O)CCCCCCCCCCCCC)COC(=O)CCCCCCCCCCCCCCC` [TG 14:0_15:1_16:0] (ion (formula + adduct): [C48H90O6+NH4] 1+): for the setting “sample type: Liver”, the “TIMS collisional cross section” value is on record as 303.1 Å².
As for `CCCCCCCCCCCCCCCCCC(=O)O[C@H](COC(=O)CCCCCCC)COP(=O)([O-])OCC[N+](C)(C)C` [PC 8:0_18:0@] (ion (formula + adduct): [C34H68NO8P+H] 1+), the “TIMS collisional cross section” value (sample type: Liver) is given as 265.4 Å².
For the molecule `CCCCCCCC/C=C\CCCCCCCC(=O)O[C@H](COCCCCCCCCCCCCCCCC)COP(=O)(O)OCCN` [PE O- 16:0@_18:1] (ion (formula + adduct): [C39H78NO7P+H] 1+), under “sample type: HeLa”, the “TIMS collisional cross section” value came to 276 Å².
Take `CCCCC/C=C\C/C=C\CCCCCCCCCC(=O)OC[C@@H](O)COP(=O)(O)OC[C@@H](O)CO` [LPG 20:2] (ion (formula + adduct): [C26H49O9P+H] 1+): the “TIMS collisional cross section” value (sample type: Liver) is on record as 230.1 Å².
Take `CCCCC/C=C/C/C=C/C/C=C/C/C=C/CCCC(=O)O[C@H](COCCCCCCCCCCCCCCCC)COP(=O)([O-])OCC[N+](C)(C)C` [PC O- 16:0@_20:4] (ion (formula + adduct): [C44H82NO7P+H] 1+): the “TIMS collisional cross section” value (sample type: HeLa) is 290.4 Å².
As for `CCCCCCCCCCCCCCCCC(=O)OC[C@@H](COC(=O)CCCCCCCCCCCCC)OC(=O)CCCCCCCCCCCCCCC` [TG 14:0_16:0_17:0] (ion (formula + adduct): [C50H96O6+NH4] 1+), the “TIMS collisional cross section” value (sample type: Liver) turned out to be 311.5 Å².
Take `CCCCCCCCCCCCCCCCCCCC(=O)OC[C@@H](COC(=O)CCCCCCCCCCCCC)OC(=O)CCCCCCCCCCCCCCC` [TG 14:0_16:0_20:0] (ion (formula + adduct): [C53H102O6+NH4] 1+): under “sample type: HeLa”, the “TIMS collisional cross section” value was 320.6 Å².
Regarding `CCCCCCCC/C=C\CCCCCCCCCCCCCC(=O)N[C@@H](CO[C@@H]1O[C@H](CO)[C@@H](O)C(O)C1O)[C@H](O)/C=C/CCCCCCCCCCCCC` (some centres not stated) [GlcCer d18:1_24:1@] (ion (formula + adduct): [C48H91NO8+H] 1+), the “TIMS collisional cross section” value (sample type: Liver) was determined as 302.8 Å².
In the case of `CCCCCCC/C=C\CCCCCCCC(=O)OC[C@H](COP(=O)([O-])OCC[N+](C)(C)C)OC(=O)CCCCCCC/C=C\CCCCCCCC` [PC 17:1_18:1] (ion (formula + adduct): [C43H82NO8P+H] 1+), for the setting “sample type: HeLa”, the “TIMS collisional cross section” value is listed as 289.2 Å².
`CCCCCC/C=C\CCCCCCCC(=O)O[C@H](CO/C=C\CCCCCCCCCCCCCC)COP(=O)([O-])OCC[N+](C)(C)C` [PC P- 16:0@_16:1] (ion (formula + adduct): [C40H78NO7P+H] 1+): the “TIMS collisional cross section” value (sample type: HeLa) is 281.9 Å².
Consider `CCCCC/C=C\C/C=C\CCCCCCCC(=O)OC[C@H](CO)OC(=O)CCCCCCCCCCC/C=C\CCCCCCCC` [DG 18:2_22:1_0:0] (ion (formula + adduct): [C43H78O5+NH4] 1+), for which the “TIMS collisional cross section” value (sample type: Liver) was 275.5 Å².
In the case of `CCCCC/C=C\C/C=C\C/C=C\C/C=C\CCCC(=O)OC[C@@H](O)COP(=O)(O)O` [LPA 20:4_0:0] (ion (formula + adduct): [C23H39O7P+H] 1+), for the setting “sample type: plasma”, the “TIMS collisional cross section” value is 205 Å².
For the molecule `CCCCC/C=C\C/C=C\C/C=C\C/C=C\CCCC(=O)O[C@H](COC(=O)CCCCCCCCCCCCCCC)COP(=O)(O)OCCN` [PE 16:0_20:4] (ion (formula + adduct): [C41H74NO8P+H] 1+), the “TIMS collisional cross section” value runs as follows: (sample type: HeLa) 276.1 ± 1.1 Å²; (sample type: Liver) 277.25 ± 0.49 Å².
For the molecule `CC/C=C\C/C=C\C/C=C\C/C=C\C/C=C\CCCC(=O)O[C@H](COCCCCCCCCCCCCCCCC)COP(=O)([O-])OCC[N+](C)(C)C` [PC O- 16:0@_20:5] (ion (formula + adduct): [C44H80NO7P+H] 1+), the “TIMS collisional cross section” value (sample type: HeLa) is 287.7 Å².
With `CCCCCC/C=C\CCCCCCCC(=O)O[C@@H](COC(=O)CCCCCCC/C=C\CCCCCCCC)COC(=O)CCCCCCCCCCCC` [TG 13:0_16:1_18:1] (ion (formula + adduct): [C50H92O6+NH4] 1+), the “TIMS collisional cross section” value (sample type: HeLa) was found to be 306.8 Å².
`CCCCCCCCCCCCCCCC(=O)OC[C@@H](COC(=O)CCCCCCCCCCCCC)OC(=O)CCCCCCCCCCCCC` [TG 14:0_14:0_16:0] (ion (formula + adduct): [C47H90O6+NH4] 1+): the “TIMS collisional cross section” value is, setting by setting: (sample type: HeLa) 301.7 Å²; (sample type: plasma) 301.3 ± 0.4 Å².
On to `CCCCCCCCCCCCCCCCC(=O)OC[C@@H](COC(=O)CCCCCCCCCCCCC)OC(=O)CCCCCCCCCCCCC` [TG 14:0_14:0_17:0] (ion (formula + adduct): [C48H92O6+NH4] 1+), for which the “TIMS collisional cross section” value (sample type: HeLa) is reported as 304.6 Å².
As to `CCCC/C=C\CCCCCCCC(=O)OC[C@H](COC(=O)CCCCCCC/C=C\CCCCCC)OC(=O)CCCCCCC/C=C\CCCCC` [TG 14:1_15:1_16:1] (ion (formula + adduct): [C48H86O6+NH4] 1+), the “TIMS collisional cross section” value by setting is: (sample type: HeLa) 298.2 Å²; (sample type: Liver) 296 Å².
Turning to `CCCCC/C=C\C/C=C\CCCCCCCC(=O)O[C@H](COC(=O)CCCCCCCCCCCCCC)COP(=O)([O-])OCC[N+](C)(C)C` [PC 15:0@_18:2] (ion (formula + adduct): [C41H78NO8P+H] 1+), the “TIMS collisional cross section” value is recorded as 281 Å² (sample type: Liver) and 280.9 Å² (sample type: plasma).
As for `CCCCCCCC/C=C\CCCCCCCCCCCCCC(=O)N[C@@H](COP(=O)([O-])OCC[N+](C)(C)C)[C@H](O)/C=C/CCCCCCCCCCCCC` [SM d18:1_24:1@] (ion (formula + adduct): [C47H93N2O6P+H] 1+), the “TIMS collisional cross section” value runs as follows: (sample type: HeLa) 305.4 ± 0.14 Å²; (sample type: Liver) 305.3 Å²; (sample type: plasma) 305.5 Å².
Turning to `CC/C=C\C/C=C\C/C=C\C/C=C\C/C=C\CCCC(=O)O[C@H](COC(=O)CCCCCCCCCCCCCCCCC)COP(=O)([O-])OCC[N+](C)(C)C` [PC 18:0@_20:5] (ion (formula + adduct): [C46H82NO8P+H] 1+), the “TIMS collisional cross section” value stood at 296.3 Å² (sample type: Liver) and 295.4 Å² (sample type: plasma).
`CCCCC/C=C\C/C=C\C/C=C\C/C=C\CCCC(=O)OC[C@@H](COC(=O)CCCCCCC/C=C\CCCCCC)OC(=O)CCCCCCCCCCCCCCCCC` [TG 16:1_18:0_20:4] (ion (formula + adduct): [C57H100O6+NH4] 1+): under “sample type: Liver”, the “TIMS collisional cross section” value is reported as 324.7 Å².
With `CCCCCCCC/C=C\CCCCCCCC(=O)O[C@H](COC(=O)CCCCCCCCCCCCCCC)COP(=O)([O-])OCC[N+](C)(C)C` [PC 16:0@_18:1] (ion (formula + adduct): [C42H82NO8P+H] 1+), the “TIMS collisional cross section” value reads like this: (sample type: HeLa) 289.15 ± 0.49 Å²; (sample type: Liver) 287.6 Å²; (sample type: plasma) 288.2 Å².
Regarding `CCCCCCCC/C=C\CCCCCCCC(=O)OC[C@@H](COC(=O)CCCCCCCCCCCCC)OC(=O)CCCCCCCCCCCCC` [TG 14:0_14:0_18:1] (ion (formula + adduct): [C49H92O6+NH4] 1+), under “sample type: Liver”, the “TIMS collisional cross section” value is 305.9 Å².
With `CCCCC/C=C\C/C=C\C/C=C\C/C=C\CCCCCC(=O)O[C@@H](CO)COC(=O)CCCCCCCCCCCCCCC` [DG 16:0_22:4_0:0] (ion (formula + adduct): [C41H72O5+NH4] 1+), the “TIMS collisional cross section” value by setting is: (sample type: HeLa) 271.2 Å²; (sample type: Liver) 270.8 Å².
Turning to `CCCCC/C=C\C/C=C\CCCCCCCCCC(=O)OC[C@@H](COC(=O)CCCCCCCCCCCCCCCC)OC(=O)CCCCCCC/C=C\CCCCCCCC` [TG 17:0_18:1_20:2] (ion (formula + adduct): [C58H106O6+NH4] 1+), the “TIMS collisional cross section” value (sample type: plasma) is recorded as 329.3 Å².
Take `CCCCC/C=C\C/C=C\C/C=C\C/C=C\CCCC(=O)O[C@H](CO/C=C\CCCCCCCCCCCCCC)COP(=O)(O)OCCN` [PE P- 16:0@_20:4] (ion (formula + adduct): [C41H74NO7P+H] 1+): where the note is “sample type: Liver”, the “TIMS collisional cross section” value worked out at 273.9 Å².
For the molecule `CCCCCCCCCC/C=C\CCCCCCCCCC(=O)OC[C@@H](O)COP(=O)([O-])OCC[N+](C)(C)C` [LPC 22:1] (ion (formula + adduct): [C30H60NO7P+H] 1+), the “TIMS collisional cross section” value is recorded as 247.3 Å² (sample type: HeLa) and 247.6 Å² (sample type: plasma).
Consider `CCCCCC/C=C\CCCCCCCC(=O)OC[C@@H](COC(=O)CCCCCCCCCCCCCC)OC(=O)CCCCCCCCCCCCCC` [TG 15:0_15:0_16:1] (ion (formula + adduct): [C49H92O6+NH4] 1+), for which the “TIMS collisional cross section” value (sample type: HeLa) came to 305.9 Å².
For the molecule `CC/C=C\C/C=C\C/C=C\C/C=C\C/C=C\CCCCCC(=O)O[C@@H](CO)COC(=O)CCCCCCC/C=C\CCCCCCCC` [DG 18:1_22:5_0:0] (ion (formula + adduct): [C43H72O5+NH4] 1+), under “sample type: Liver”, the “TIMS collisional cross section” value stood at 272.3 Å².
As for `CC/C=C\C/C=C\C/C=C\C/C=C\C/C=C\C/C=C\CCC(=O)OC[C@@H](COC(=O)CCCCCCC/C=C\C/C=C\CCCCC)OC(=O)CCCCCCC/C=C\C/C=C\CCCCC` [TG 18:2_18:2_22:6] (ion (formula + adduct): [C61H98O6+NH4] 1+), the “TIMS collisional cross section” value is reported as 327.3 Å² (sample type: Liver) and 327 Å² (sample type: plasma).
`CCCCCCCC/C=C\CCCCCCCCCCCCCC(=O)N[C@@H](COP(=O)([O-])OCC[N+](C)(C)C)[C@H](O)/C=C/CCCCCCCCCCCC` [SM d17:1_24:1@] (ion (formula + adduct): [C46H91N2O6P+H] 1+): under “sample type: HeLa”, the “TIMS collisional cross section” value is reported as 302.1 Å².
